Source: patent US12624018B1, “Inhibitors of RIPK2 and medical uses thereof” (Odyssey Therapeutics, Inc., priority 2022, dated 2026)
Read-outs that look alike come from different tables or passages of the source.

How the values were obtained:
RIPK2 enzyme = target: T1, RIPK2 enzyme (Homo sapiens, UniProt O43353); experiment: RIPK2 inhibition (ADP-Glo Kinase Assay); type: biochemical; conditions: RIPK2 5 nM, ATP 150 μM, MBP substrate, read-out: RIPK2 IC50
T1 construct: purchased Carna 09-128
Procedure, shortened: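 Swine MBP substrate; compound and 5 nM RIPK2 first mixed for 30 min at room temperature; buffer pH 7.5 HEPES 50 mM with 10 mM MgCl2, 2 mM DTT, 1 mM EGTA, Brij-35, BSA.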

human NOD2 signaling = experiment: Inhibition of human NOD2 signaling in HEK-Blue-hNOD2 cells (L18-MDP stimulated, SEAP reporter); type: cell-based; conditions: NOD2 ligand stimulation, SEAP reporter, read-out: hNOD2 IC50
Protocol: Materials: Human NOD32-expressing 1TEK293 cells, HEK-Blue™-hNOD2 cells, were developed by Invivogen (catalogue number: hkb-hnod2) using co-transfection of the human NOD2 gene and an optimized secreted embryonic alkaline phosphatase (SEAP) reporter gene into HTEK293 cells. The cell maintenance medium consisted of DMEM (Giboc, 21063-029), heat inactivated FBS, penicillin (100 U/mL), streptomycin (100 μg/mL), Normocin (100 μg/mL), Blasticidin (30 μg/mL), and Zeocin (100 μg/mL). HEK-Blue™-hNOD2 cells were transferred to assay medium consisting of DMEM (Giboc, 21063-029), heat inactivated FBS, penicillin (100 U/mL) and streptomycin (100 μg/mL) prior to stimulation. Stimulation with a NOD2 ligand, L18-MDP (Invivogen, catalogue number: tlrl-lmdp) activated NF-κB and AP-1 which induced the production of SEAP. Levels of SEAP were determined with HEK-Blue™ Detection (referred to as QUANTI-Blue solution), a cell culture medium that allows for real-time detection of SEAP. QUANTI-Blue solution was prepared by adding 1 mL of QB reagent and 1 mL of QB buffer to 98 mL of sterile H2O. Test compounds were prepared into a 10 mM DMSO solution and were serially diluted into 10 points using a 3-fold dilution in a 384 well plate using a TECAN EVO200.
Method: In a 384 well plate, 40 nL of test compound was dispensed using Echo550. HEK-Blue™-hNOD2 cells (Invivogen) were prepared into a cell suspension and 40 μL of the cell suspension (12500 cells per well) was dispensed into the 384 well plate. To activate NOD2 signaling, 40 nL of L18-MDP (final concentration of 0.5 ng/mL) was added and the plate was incubated at 37° C. in a CO2 incubator for 24 hours. After the 24-hour incubation, 5 μL of the induced HEK-Blue hNOD2 cell supernatant was transferred to a new 384-well plate, centrifuged, and 45 μL of QUANTI-Blue solution was added per well and incubated for 3 hours at 37° C. SEAP levels were measured using an Ensight at 620 nm. Percent inhibition of NOD2 signaling was determined using the following equation: (high control−test compound signal)/(High control−low control)×100. The reaction high control was determined using wells with DMSO, cells, L18-MDP, and QUANTI-Blue solution. The reaction low control was determined using wells with DMSO, cells, and QUANTI-Blue solution. 4-parametric curve fit was used to determine the test compound concentration that results in 50% reduction of L18-MDP-driven human NOD2 signaling.
Using the assay described above, inhibition of hNOD2 signaling was also evaluated for GSK 2983559 (Haile at al., J. Med. Chem. 2019, 62, 14, 6482-6494), a known RIPK2 kinase inhibitor: […]

[1] = Homo sapiens, HEK-Blue hNOD2, HEK-Blue-hNOD2 cells

T1 sequence (O43353 1-299 limits assumed): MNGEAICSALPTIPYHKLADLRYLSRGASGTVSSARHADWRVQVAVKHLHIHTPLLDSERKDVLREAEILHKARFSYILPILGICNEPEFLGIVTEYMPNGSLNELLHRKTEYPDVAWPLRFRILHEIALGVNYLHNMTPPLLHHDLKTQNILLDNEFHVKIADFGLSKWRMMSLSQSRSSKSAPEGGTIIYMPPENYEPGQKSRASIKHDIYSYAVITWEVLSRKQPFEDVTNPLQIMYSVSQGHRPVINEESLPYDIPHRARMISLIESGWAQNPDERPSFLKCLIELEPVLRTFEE

SMILES	IC50 (RIPK2 enzyme)	IC50 (human NOD2 signaling; [1])	IC50 (human NOD2 signaling; HEK-Blue-hNOD2 cells)
Cc1cc(CC(=O)Nc2cnn(C(C)(C)C)c2)c(F)cc1Oc1ccnc2ccc(-c3ncccc3C)cc12 [Compound 475, N-(1-(tert-butyl)-1H-pyrazol-4-yl)-2-(2-fluoro-5-methyl-4-((6-(3-methylpyridin-2-yl)quinolin-4-yl)oxy)phenyl)acetamide]	4.2 nM	54 nM	
[2H]C([2H])([2H])NC(=O)c1cc2c(Oc3ccc(CC(=O)Nc4cnn(C(C)(C)C)c4)cc3C(F)F)ccnc2cc1OC [Compound 580, 4-(4-(2-((1-(tert-butyl)-1H-pyrazol-4-yl)amino)-2-oxoethyl)-2-(difluoromethyl)phenoxy)-7-methoxy-N-(methyl-d3)quinoline-6-carboxamide]	< 2.5 nM	1.2 nM	
Cc1c(Oc2ccnc3ccc(S(=N)(=O)C4CCC4)cc23)ccc(CC(=O)Nc2cnn(C(C)(C)C)c2)c1F (single isomer, unassigned) [Compound 542, N-(1-(tert-butyl)-1H-pyrazol-4-yl)-2-(4-((6-(cyclobutanesulf-onimidoyl)quinolin-4-yl)oxy)-2-fluoro-3-methylphenyl) acetamide]	< 2.5 nM		0.2 nM
Cc1cc(CC(=O)Nc2cnn(C(C)(C)C)c2)ccc1Oc1ccnc2ccc(C3(C(N)=O)CC3)cc12 [Compound 603, 1-(4-(4-(2-((1-(tert-butyl)-1H-pyrazol-4-yl)amino)-2-oxoethyl)-2-methylphenoxy)quinolin-6-yl)cyclopropane-1-carboxamide]	< 2.5 nM	2.5 nM	
Cc1cc(CC(=O)Nc2cnn(C(C)(C)C)c2)ccc1Oc1ccnc2ccc(C(O)C(N)=O)cc12 (single isomer, unassigned) [Compound 609, 2-(4-((6-(2-amino-1-hydroxy-2-oxoethyl)quinolin-4-yl)oxy)-3-methylphenyl)-N-(1-(tert-butyl)-1H-pyrazol-4-yl)acetamide]	< 2.5 nM	46.3 nM	
Cc1cc(CC(=O)Nc2cnn(C(C)(C)C)c2)c(F)cc1Oc1ccnc2ccc(-c3cccnc3C)cc12 [Compound 508, N-(1-(tert-butyl)-1H-pyrazol-4-yl)-2-(2-fluoro-5-methyl-4-((6-(2-methylpyridin-3-yl)quinolin-4-yl)oxy)phenyl)acetamide]	< 2.5 nM	2.5 nM	
CNC(=O)c1cc2c(Oc3ccc(CC(=O)Nc4cnn(C(C)(C)C)c4)cc3C(F)F)ccnc2cc1OC [Compound 579, 4-(4-(2-((1-(tert-butyl)-1H-pyrazol-4-yl)amino)-2-oxoethyl)-2-(difluoromethyl)phenoxy)-7-methoxy-N-methylquinoline-6-carboxamide]	< 2.5 nM	0.8 nM	
Cc1cc(CC(=O)Nc2cnn(C(C)(C)C)c2)c(F)cc1Oc1ccnc2ccc(C(=O)NC3(C)COC3)cc12 [Compound 514, 4-(4-(2-((1-(tert-butyl)-1H-pyrazol-4-yl)amino)-2-oxoethyl)-5-fluoro-2-methylphenoxy)-N-(3-methyloxetan-3-yl)quinoline-6-carboxamide]	< 2.5 nM	1.5 nM	
Cc1cc(CC(=O)Nc2cnn(C(C)C(F)(F)F)c2)ccc1Oc1ccnc2ccc(S(C)(=O)=O)cc12 (single isomer, unassigned) [Compound 594, 2-(3-methyl-4-((6-(methylsulfonyl)quinolin-4-yl)oxy)phenyl)-N-(1-(1,1,1-trifluoropropan-2-yl)-1H-pyrazol-4-yl)acetamide]	< 2.5 nM	27 nM	
Cc1cc(CC(=O)Nc2cnn(C(C)(C)C)c2)c(F)cc1Oc1ccnc2ccc(-c3cncnc3C)cc12 [Compound 524, N-(1-(tert-butyl)-1H-pyrazol-4-yl)-2-(2-fluoro-5-methyl-4-((6-(4-methylpyrimidin-5-yl)quinolin-4-yl)oxy)phenyl)acetamide]	< 2.5 nM	0.7 nM	
Cc1cc(CC(=O)Nc2cc(C(C)(C)C)[nH]n2)ccc1Oc1ccnc2cc(F)c(S(C)(=N)=O)cc12 (single isomer, unassigned) [Compound 620, N-(5-(tert-butyl)-1H-pyrazol-3-yl)-2-(4-((7-fluoro-6-(S-methylsulfonimidoyl)quinolin-4-yl)oxy)-3-methylphenyl) acetamide]	< 2.5 nM	6.7 nM	

Other lines, results leading:

IC50 (RIPK2 enzyme)	IC50 (human NOD2 signaling; [1])	IC50 (human NOD2 signaling; HEK-Blue-hNOD2 cells)	SMILES
< 2.5 nM	5.2 nM		CNC(=O)c1cc2c(Oc3ccc(CC(=O)Nc4cnn(C(C)(C)C)c4)cc3C(F)F)ccnc2cc1F [Compound 576, 4-(4-(2-((1-(tert-butyl)-1H-pyrazol-4-yl)amino)-2-oxoethyl)-2-(difluoromethyl)phenoxy)-7-fluoro-N-methylquinoline-6-carboxamide]
3.5 nM	6.1 nM		Cc1c(Oc2ccnc3ccc(C4(S(C)(=O)=O)CC4)cc23)cc(F)c(CC(=O)Nc2cnn(C(C)(C)C)c2)c1F [Compound 607, N-(1-(tert-butyl)-1H-pyrazol-4-yl)-2-(2,6-difluoro-3-methyl-4-((6-(1-(methylsulfonyl)cyclopropyl)quinolin-4-yl)oxy)phenyl)acetamide]
< 2.5 nM	28.6 nM		Cc1cc(CC(=O)Nc2cnn(C34CC(C3)C4)c2)cc(C)c1Oc1ccnc2ccc(C(N)=O)cc12 [Compound 587, 4-(4-(2-((1-(bicyclo[1.1.1]pentan-1-yl)-1H-pyrazol-4-yl)amino)-2-oxoethyl)-2,6-dimethylphenoxy)quinoline-6-carboxamide]
2.8 nM	80.2 nM		[2H]C([2H])([2H])NC(=O)c1ccc2nccc(Oc3c(C)cc(CC(=O)Nc4cnn(C56CC(C5)C6)c4)cc3Cl)c2c1 [Compound 592, 4-(4-(2-((1-(bicyclo[1.1.1]pentan-1-yl)-1H-pyrazol-4-yl)amino)-2-oxoethyl)-2-chloro-6-methylphenoxy)-N-(methyl-d3)quinoline-6-carboxamide]
< 2.5 nM	0.3 nM		Cc1cc(CC(=O)Nc2cc(C(C)(C)C)[nH]n2)cc(C)c1Oc1ccnc2cc(F)c(C(N)=O)cc12 [Compound 618, 4-(4-(2-((5-(tert-butyl)-1H-pyrazol-3-yl)amino)-2-oxoethyl)-2,6-dimethylphenoxy)-7-fluoroquinoline-6-carboxamide]
< 2.5 nM		41.6 nM	N=S(=O)(c1ccc2nccc(Oc3cc(F)c(CC(=O)Nc4cnn(C56CC(C5)C6)c4)cc3Cl)c2c1)C1CC1 (single isomer, unassigned) [Compound 531, N-(1-(bicyclo[1.1.1]pentan-1-yl)-1H-pyrazol-4-yl)-2-(5-chloro-4-((6-(cyclopropanesul-fonimidoyl)quinolin-4-yl)oxy)-2-fluorophenyl) acetamide]
< 2.5 nM	0.3 nM		Cc1c(Oc2ccnc3ccc(S(=N)(=O)C4CCC4)cc23)ccc(CC(=O)Nc2cnn(C(C)(C)C)c2)c1F (single isomer, unassigned) [Compound 541, N-(1-(tert-butyl)-1H-pyrazol-4-yl)-2-(4-((6-(cyclobutanesulf-onimidoyl)quinolin-4-yl)oxy)-2-fluoro-3-methylphenyl) acetamide]
< 2.5 nM	7.5 nM		CC(C)(C)n1cc(NC(=O)Cc2ccc(Oc3ccnc4ccc(C(N)=O)cc34)c(C(F)F)c2)cn1 [Compound 462, 4-(4-(2-((1-(tert-butyl)-1H-pyrazol-4-yl)amino)-2-oxoethyl)-2-(difluoromethyl)phenoxy) quinoline-6-carboxamide]
2.5 nM	1.6 nM		[2H]C([2H])([2H])C(n1cc(NC(=O)Cc2cc(C)c(Oc3ccnc4cc(F)c(C(N)=O)cc34)c(F)c2)cn1)(C([2H])([2H])[2H])C([2H])([2H])[2H] [Compound 608, 7-fluoro-4-(2-fluoro-6-methyl-4-(2-((1-(2-(methyl-d3)propan-2-yl-1,1,1,3,3,3-d6)-1H-pyrazol-4-yl)amino)-2-oxoethyl)phenoxy) quinoline-6-carboxamide]
